Assay results: ChEMBL document CHEMBL1201862, “PubChem BioAssay data set” (2004)
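Exposure lasted 48 hours, with cells grown in 96-well plates and compounds tested at five concentrations. GI50 is the concentration that inhibits growth by half.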 Active and inactive are the calls of the source. No stated cut-off is given here; in the data, active = GI50 up to about 1.1 µM and inactive = higher.

Legend:
Assay in all cases: NCI tumour cell line growth inhibition, 48 h
[1] = system: 786-0
[2] = system: SF-268
[3] = system: HT-29
[4] = system: CAKI-1
[5] = system: A498
[6] = system: T47D
[7] = system: DU-145
[8] = system: HOP-92
[9] = system: SK-MEL-28
[10] = system: SN12C
[11] = system: SNB-75
[12] = system: SK-MEL-5
[13] = system: OVCAR-5
[14] = system: LOX IMVI
[15] = system: NCI-H522
[16] = system: COLO 205
[17] = system: HCC 2998
[18] = system: Malme-3M
[19] = system: HL-60

Nc1nc(O)c2nc3c(nc2n1)C(=O)N(c1ccc(C(=O)O)cc1)C3
GI50 [1]: > 100 µM (inactive) | GI50 [2]: > 100 µM (inactive) | GI50 [3]: > 100 µM (inactive) | GI50 [4]: > 100 µM (inactive) | GI50 [5]: > 100 µM (inactive) | GI50 [6]: > 100 µM (inactive) | GI50 [7]: > 100 µM (inactive) | GI50 [8]: > 100 µM (inactive) | GI50 [9]: > 100 µM (inactive) | GI50 [10]: > 100 µM (inactive) | GI50 [11]: > 100 µM (inactive) | GI50 [12]: > 100 µM (inactive) | GI50 [13]: > 100 µM (inactive) | GI50 [14]: > 100 µM (inactive) | GI50 [15]: > 100 µM (inactive) | GI50 [16]: > 100 µM (inactive) | GI50 [17]: > 100 µM (inactive) | GI50 [18]: > 100 µM (inactive)

CCOP(=O)(OCC)C(C(=O)OC)C(=O)C(=O)Nc1cccc(O)c1 (stereo not drawn)
GI50 [1]: > 100 µM (inactive) | GI50 [2]: > 100 µM (inactive) | GI50 [3]: > 100 µM (inactive) | GI50 [4]: > 100 µM (inactive) | GI50 [5]: > 100 µM (inactive) | GI50 [6]: > 100 µM (inactive) | GI50 [7]: > 100 µM (inactive) | GI50 [8]: > 100 µM (inactive) | GI50 [9]: > 100 µM (inactive) | GI50 [10]: > 100 µM (inactive) | GI50 [11]: > 100 µM (inactive) | GI50 [12]: > 100 µM (inactive) | GI50 [13]: > 100 µM (inactive) | GI50 [14]: > 100 µM (inactive) | GI50 [15]: > 100 µM (inactive) | GI50 [16]: > 100 µM (inactive) | GI50 [17]: > 100 µM (inactive) | GI50 [18]: > 100 µM (inactive)

O=c1c2sc3nc(NCCN4CCCCC4)ncc3c2ncn1-c1ccccc1
GI50 [1]: 80.7 µM (inactive) | GI50 [2]: 60 µM (inactive) | GI50 [3]: 30.5 µM (inactive) | GI50 [4]: 33 µM (inactive) | GI50 [5]: > 100 µM (inactive) | GI50 [6]: 35.8 µM (inactive) | GI50 [7]: > 100 µM (inactive) | GI50 [8]: 27.3 µM (inactive) | GI50 [9]: 55.2 µM (inactive) | GI50 [10]: > 100 µM (inactive) | GI50 [11]: 45.3 µM (inactive) | GI50 [12]: 19.2 µM (inactive) | GI50 [13]: > 100 µM (inactive) | GI50 [14]: 17.3 µM (inactive) | GI50 [15]: 41 µM (inactive) | GI50 [16]: 41.3 µM (inactive) | GI50 [17]: > 100 µM (inactive) | GI50 [18]: 20.1 µM (inactive)

Cc1[nH]n(-c2ncc(C#N)c(=O)[nH]2)c(=O)c1CCO
GI50 [1]: > 100 µM (inactive) | GI50 [2]: > 100 µM (inactive) | GI50 [3]: > 100 µM (inactive) | GI50 [4]: > 100 µM (inactive) | GI50 [5]: > 100 µM (inactive) | GI50 [6]: > 100 µM (inactive) | GI50 [7]: > 100 µM (inactive) | GI50 [8]: > 100 µM (inactive) | GI50 [9]: > 100 µM (inactive) | GI50 [10]: > 100 µM (inactive) | GI50 [11]: 16.4 µM (inactive) | GI50 [12]: > 100 µM (inactive) | GI50 [13]: > 100 µM (inactive) | GI50 [14]: > 100 µM (inactive) | GI50 [15]: > 100 µM (inactive) | GI50 [16]: > 100 µM (inactive) | GI50 [17]: > 100 µM (inactive) | GI50 [18]: > 100 µM (inactive)

CC1OC(OC2C(O)COC(OC3C(C)OC(OC4C(OC(=O)[C@]56CCC(C)(C)C[C@@H]5C5=CCC7[C@@]8(C)C[C@H](O)[C@H](OC9OC(CO)C(O)C(O)C9O)[C@@](C)(CO)[C@@H]8CC[C@@]7(C)[C@]5(C)CC6)OCC(O)C4O)C(O)C3OC3OCC(O)C(O)C3O)C2O)C(O)C(O)C1O (stereo partly drawn)
GI50 [1]: 15.5 µM (inactive) | GI50 [2]: 29.2 µM (inactive) | GI50 [4]: 10.7 µM (inactive) | GI50 [5]: 14.3 µM (inactive) | GI50 [6]: 20.2 µM (inactive) | GI50 [7]: 18.4 µM (inactive) | GI50 [8]: 24.8 µM (inactive) | GI50 [9]: 11.2 µM (inactive) | GI50 [10]: 17.5 µM (inactive) | GI50 [11]: 22.6 µM (inactive) | GI50 [12]: 19.5 µM (inactive) | GI50 [13]: 14.4 µM (inactive) | GI50 [14]: 18.9 µM (inactive) | GI50 [15]: 44.9 µM (inactive) | GI50 [16]: 4.46 µM (inactive) | GI50 [17]: 16.6 µM (inactive) | GI50 [18]: 34.4 µM (inactive)

CN1c2ccccc2S(=O)(=O)n2c(CCc3ccccc3)nnc21
GI50 [1]: 54.1 µM (inactive) | GI50 [2]: > 100 µM (inactive) | GI50 [3]: > 100 µM (inactive) | GI50 [4]: 44.1 µM (inactive) | GI50 [5]: 39.1 µM (inactive) | GI50 [6]: > 100 µM (inactive) | GI50 [7]: > 100 µM (inactive) | GI50 [8]: 37.8 µM (inactive) | GI50 [9]: > 100 µM (inactive) | GI50 [10]: > 100 µM (inactive) | GI50 [12]: > 100 µM (inactive) | GI50 [13]: > 100 µM (inactive) | GI50 [14]: > 100 µM (inactive) | GI50 [15]: 43.9 µM (inactive) | GI50 [16]: > 100 µM (inactive) | GI50 [17]: > 100 µM (inactive) | GI50 [19]: > 100 µM (inactive)

COc1cc(C2SCC(=O)N2c2ccc(-c3ccc(-n4c(-c5ccccc5)nc5ccccc5c4=O)cc3)cc2)cc(OC)c1OC (stereo not drawn)
GI50 [1]: 16.2 µM (inactive) | GI50 [2]: 63 µM (inactive) | GI50 [3]: 33.3 µM (inactive) | GI50 [4]: 19.1 µM (inactive) | GI50 [5]: 44.3 µM (inactive) | GI50 [6]: 24.8 µM (inactive) | GI50 [7]: 78 µM (inactive) | GI50 [8]: 50.7 µM (inactive) | GI50 [9]: 21.9 µM (inactive) | GI50 [10]: 81.5 µM (inactive) | GI50 [12]: 22.4 µM (inactive) | GI50 [13]: > 100 µM (inactive) | GI50 [14]: 2.21 µM (inactive) | GI50 [15]: 13.4 µM (inactive) | GI50 [16]: 54.1 µM (inactive) | GI50 [17]: 55.2 µM (inactive) | GI50 [18]: 31.7 µM (inactive) | GI50 [19]: 22.3 µM (inactive)

Cc1ccc(S(=O)(=O)N/N=C2\CCC3(O)CC2(C)CCC2C3CC2(C)C)cc1 (stereo not drawn)
GI50 [1]: 45.3 µM (inactive) | GI50 [2]: 37.4 µM (inactive) | GI50 [3]: 34.4 µM (inactive) | GI50 [4]: 37.2 µM (inactive) | GI50 [5]: 36.8 µM (inactive) | GI50 [6]: 35.1 µM (inactive) | GI50 [7]: 36.2 µM (inactive) | GI50 [8]: 28.4 µM (inactive) | GI50 [9]: 31.1 µM (inactive) | GI50 [10]: 57.8 µM (inactive) | GI50 [12]: 35.6 µM (inactive) | GI50 [13]: 50.6 µM (inactive) | GI50 [14]: 32.1 µM (inactive) | GI50 [15]: 20.9 µM (inactive) | GI50 [16]: 22.5 µM (inactive) | GI50 [17]: 46.3 µM (inactive) | GI50 [18]: 53.2 µM (inactive) | GI50 [19]: > 100 µM (inactive)

C#CCn1c(=O)ccn(/C(=C\C(=O)OCC)C(=O)OCC)c1=O
GI50 [1]: 2.3 µM (inactive) | GI50 [2]: 19.9 µM (inactive) | GI50 [3]: 2.04 µM (inactive) | GI50 [4]: 1.03 µM (active) | GI50 [5]: 17.1 µM (inactive) | GI50 [6]: 3.52 µM (inactive) | GI50 [7]: 15.6 µM (inactive) | GI50 [8]: 2.16 µM (inactive) | GI50 [9]: 11.7 µM (inactive) | GI50 [10]: 8.89 µM (inactive) | GI50 [11]: 20 µM (inactive) | GI50 [12]: 20.5 µM (inactive) | GI50 [13]: 13.5 µM (inactive) | GI50 [14]: 12.2 µM (inactive) | GI50 [16]: 1.11 µM (active) | GI50 [17]: 19.9 µM (inactive) | GI50 [18]: 1.89 µM (inactive) | GI50 [19]: 2.93 µM (inactive)

O=C1CC(c2cccc(Cl)c2)n2cccc21 (stereo not drawn)
GI50 [1]: > 100 µM (inactive) | GI50 [2]: 74.6 µM (inactive) | GI50 [3]: > 100 µM (inactive) | GI50 [4]: 54.6 µM (inactive) | GI50 [5]: > 100 µM (inactive) | GI50 [6]: 44.2 µM (inactive) | GI50 [7]: > 100 µM (inactive) | GI50 [8]: 65.3 µM (inactive) | GI50 [9]: > 100 µM (inactive) | GI50 [10]: > 100 µM (inactive) | GI50 [11]: 47.8 µM (inactive) | GI50 [13]: > 100 µM (inactive) | GI50 [14]: > 100 µM (inactive) | GI50 [16]: > 100 µM (inactive) | GI50 [17]: 88.7 µM (inactive) | GI50 [19]: 32.8 µM (inactive)

O=c1[nH]c2ccccc2c2nc3ccccc3n12
GI50 [1]: 81.8 µM (inactive) | GI50 [2]: 53.7 µM (inactive) | GI50 [3]: 49.5 µM (inactive) | GI50 [4]: 6.37 µM (inactive) | GI50 [5]: > 100 µM (inactive) | GI50 [6]: > 100 µM (inactive) | GI50 [7]: > 100 µM (inactive) | GI50 [8]: 13.9 µM (inactive) | GI50 [10]: > 100 µM (inactive) | GI50 [12]: 19.5 µM (inactive) | GI50 [13]: > 100 µM (inactive) | GI50 [14]: > 100 µM (inactive) | GI50 [15]: 7.21 µM (inactive) | GI50 [16]: 29.2 µM (inactive) | GI50 [17]: 27.9 µM (inactive) | GI50 [18]: 13.1 µM (inactive) | GI50 [19]: > 100 µM (inactive)
